Results taken from paper PMC12833730, “Discovery of a First‐in‐Class Covalent Allosteric SHP1 Inhibitor with Immunotherapeutic Activity” (Angewandte Chemie (International Ed. in English), 2025).

What was measured:
Test in all cases: PTP panel IC50, 60-min preincubation
Assay type in all cases: biochemical
TCPTP = molecular target: T1, TCPTP (Homo sapiens, UniProt P17706)
T1 construct: TC-PTP, residues 1-387; made in house; host or cells: E. coli BL21(DE3)
Description: (§1) Building on the results from the SAR “by‐catalog” study, the following medicinal chemistry effort was prioritized on a systematic survey of the central phenyl scaffold, the sulfonamide linker, and the distal aryl moiety with the goal of a multiparameter optimization of potency and selectivity for SHP1 inhibition as well as drug‐like properties such as aqueous solubility and cell permeability. Additionally, given the crucial requirement for targeted covalent inhibitors to maintain tempered reactivity that enables selective target engagement and reduces cross‐reactivity to by‐standing nucleophiles in the cellular milieu,^[ [74], [75] ^] the medicinal chemistry campaign also sought to lower SHP1 covalent inhibitor reactivity with GSH and cytotoxicity. Careful assessment and evaluation of the SAR and other desirable drug‐like attributes of all synthesized molecules led to the identification of M029 (Figure 2a and Figure S2D, manuscript in preparation). […] To determine the selectivity of M029 for SHP1, we measured the IC50 value for M029‐mediated inhibition of a number of PTPs after a 60‐min preincubation. […] To assess potential direct interactions between SHP1 and M029, we utilized the thermal shift assay to measure the thermal stability of SHP1 in the presence of M029. […] To corroborate the covalent interaction between SHP1 and M029, a single SHP1‐M029 covalent adduct was observed by electrospray protein mass spectrometry when SHP1 was incubated with M029 (Figure 2e). […] This is in line with the expectation that SHP1 inactivation by M029 occurs through nucleophilic substitution of the chlorine from the chloroacetamide warhead.
(§2) To further confirm the time-dependent inhibition and determine the IC50 of acquired hits, repurchased compounds from Enamine were serially diluted in a 96-well plate, followed by the addition of proteins at 200 nM. After 10-minute and 60-minute preincubation, 2 µL of the mixture was transferred into 100 µM 6,8-Difluoro-4-Methylumbelliferyl Phosphate (DiFMUP, Invitrogen, cat# D6567) at a final volume of 200 µL. The reaction was allowed to proceed for 5 minutes and quenched by the addition of 40 µl of a 160 µM solution of bpV(Phen) (Sigma-Aldrich, cat# SML0889). The fluorescence signal was measured using a CLARIOstar Plus Microplate Spectrophotometer (BMG Labtech) using excitation and emission wavelengths of 340 nm and 450 nm, respectively. Data were fitted using Prism GraphPad 10.1.1.

CD45 = molecular target: T2, CD45 (Homo sapiens, UniProt P08575)
T2 construct: CD45, residues 620-1236; made in house; host or cells: E. coli BL21(DE3)
Description: as §1, §2

STEP = molecular target: T3, STEP (Homo sapiens, UniProt P54829)
T3 construct: STEP, residues 258-539; made in house; host or cells: E. coli BL21(DE3)
Description: as §1, §2

MKP5 = molecular target: T4, MKP5 (Homo sapiens, UniProt Q9Y6W6)
T4 construct: MKP5, residues 320-647; made in house; host or cells: E. coli BL21(DE3)
Description: as §1, §2

LMPTP = molecular target: T5, LMPTP (Homo sapiens, UniProt P24666)
T5 construct: LMWPTP, residues 1-158; made in house; host or cells: E. coli BL21(DE3)
Description: as §1, §2

CDC14A = molecular target: T6, CDC14A (Homo sapiens, UniProt Q9UNH5)
T6 construct: CDC14A, residues 1-413; made in house; host or cells: E. coli BL21(DE3)
Description: as §1, §2

PEST = molecular target: T7, PEST (Homo sapiens, UniProt Q05209)
T7 construct: PTP-PEST, residues 5-304; made in house; host or cells: E. coli BL21(DE3)
Description: as §1, §2

FAP1 = molecular target: T8, FAP1 (Homo sapiens, UniProt Q12923)
T8 construct: FAP1, residues 2124-2485; made in house; host or cells: E. coli BL21(DE3)
Description: as §1, §2

HePTP = molecular target: T9, HePTP (Homo sapiens, UniProt P35236)
T9 construct: HePTP, residues 22-360; made in house; host or cells: E. coli BL21(DE3)
Description: as §1, §2

Ssu72 = Ssu72 (Homo sapiens, UniProt Q9NP77)
Description: as §1, §2

PP5 = PP5 (Homo sapiens, UniProt P53041)
Description: as §1, §2

T1 sequence (P17706 1-387 isoform P17706-2): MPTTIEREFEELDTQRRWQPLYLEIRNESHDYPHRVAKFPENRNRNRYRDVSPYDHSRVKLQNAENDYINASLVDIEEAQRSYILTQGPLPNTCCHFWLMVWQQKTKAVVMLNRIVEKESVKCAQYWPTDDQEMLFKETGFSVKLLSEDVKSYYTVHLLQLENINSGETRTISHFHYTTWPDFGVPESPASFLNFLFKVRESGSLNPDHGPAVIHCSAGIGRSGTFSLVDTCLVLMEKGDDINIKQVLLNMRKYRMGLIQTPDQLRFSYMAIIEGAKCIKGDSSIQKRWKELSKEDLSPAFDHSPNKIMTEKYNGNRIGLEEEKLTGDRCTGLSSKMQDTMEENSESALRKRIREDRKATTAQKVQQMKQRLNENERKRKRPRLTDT
T2 sequence (P08575 620-1236, species assumed): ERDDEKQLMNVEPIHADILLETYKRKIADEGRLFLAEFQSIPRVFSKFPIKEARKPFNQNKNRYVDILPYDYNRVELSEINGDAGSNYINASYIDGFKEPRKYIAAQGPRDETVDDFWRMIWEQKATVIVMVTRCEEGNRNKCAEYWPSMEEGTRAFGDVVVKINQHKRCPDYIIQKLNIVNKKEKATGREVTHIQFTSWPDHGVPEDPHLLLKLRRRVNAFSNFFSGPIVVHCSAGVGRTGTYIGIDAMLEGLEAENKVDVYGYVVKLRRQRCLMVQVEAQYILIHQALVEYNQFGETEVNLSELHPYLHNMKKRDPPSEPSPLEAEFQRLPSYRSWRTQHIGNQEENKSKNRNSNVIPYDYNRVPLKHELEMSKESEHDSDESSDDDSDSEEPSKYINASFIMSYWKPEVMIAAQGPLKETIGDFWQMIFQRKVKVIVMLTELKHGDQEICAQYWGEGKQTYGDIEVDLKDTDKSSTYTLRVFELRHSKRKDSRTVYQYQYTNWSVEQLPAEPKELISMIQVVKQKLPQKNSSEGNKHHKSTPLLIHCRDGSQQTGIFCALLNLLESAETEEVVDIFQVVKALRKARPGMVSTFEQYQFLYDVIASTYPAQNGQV
Ssu72, sequence (Q9NP77 whole entry, species assumed): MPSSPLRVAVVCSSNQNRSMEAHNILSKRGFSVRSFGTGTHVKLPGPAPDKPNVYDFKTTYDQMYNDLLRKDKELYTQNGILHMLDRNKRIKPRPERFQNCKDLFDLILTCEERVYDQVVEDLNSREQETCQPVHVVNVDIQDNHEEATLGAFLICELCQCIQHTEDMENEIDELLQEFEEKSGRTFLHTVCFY
T7 sequence (Q05209 5-304): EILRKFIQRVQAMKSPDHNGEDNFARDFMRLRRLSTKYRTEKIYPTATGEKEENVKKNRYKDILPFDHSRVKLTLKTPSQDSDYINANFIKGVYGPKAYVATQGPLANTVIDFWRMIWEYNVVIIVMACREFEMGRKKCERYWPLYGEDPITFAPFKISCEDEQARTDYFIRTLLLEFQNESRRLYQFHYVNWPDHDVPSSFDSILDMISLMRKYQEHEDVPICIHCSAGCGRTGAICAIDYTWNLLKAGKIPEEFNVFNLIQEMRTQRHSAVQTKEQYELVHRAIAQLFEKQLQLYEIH
T5 sequence (P24666 whole entry, the tested form may be a part): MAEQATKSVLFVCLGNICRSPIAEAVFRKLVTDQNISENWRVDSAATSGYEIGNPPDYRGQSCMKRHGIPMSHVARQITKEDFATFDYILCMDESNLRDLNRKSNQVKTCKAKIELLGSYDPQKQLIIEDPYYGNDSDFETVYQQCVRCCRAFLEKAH
T6 sequence (Q9UNH5 1-413, species assumed): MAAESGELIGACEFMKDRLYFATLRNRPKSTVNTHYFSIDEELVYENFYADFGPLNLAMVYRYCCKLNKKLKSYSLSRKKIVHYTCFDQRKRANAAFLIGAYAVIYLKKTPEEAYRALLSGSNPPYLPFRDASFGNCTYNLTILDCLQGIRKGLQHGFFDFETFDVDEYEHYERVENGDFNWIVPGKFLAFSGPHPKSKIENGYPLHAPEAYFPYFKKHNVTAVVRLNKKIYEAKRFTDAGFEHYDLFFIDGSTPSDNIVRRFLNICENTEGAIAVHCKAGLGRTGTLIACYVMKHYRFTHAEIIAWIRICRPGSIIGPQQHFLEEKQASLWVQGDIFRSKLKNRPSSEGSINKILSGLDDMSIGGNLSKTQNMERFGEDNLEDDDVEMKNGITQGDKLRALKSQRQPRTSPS
PP5, sequence (P53041 whole entry): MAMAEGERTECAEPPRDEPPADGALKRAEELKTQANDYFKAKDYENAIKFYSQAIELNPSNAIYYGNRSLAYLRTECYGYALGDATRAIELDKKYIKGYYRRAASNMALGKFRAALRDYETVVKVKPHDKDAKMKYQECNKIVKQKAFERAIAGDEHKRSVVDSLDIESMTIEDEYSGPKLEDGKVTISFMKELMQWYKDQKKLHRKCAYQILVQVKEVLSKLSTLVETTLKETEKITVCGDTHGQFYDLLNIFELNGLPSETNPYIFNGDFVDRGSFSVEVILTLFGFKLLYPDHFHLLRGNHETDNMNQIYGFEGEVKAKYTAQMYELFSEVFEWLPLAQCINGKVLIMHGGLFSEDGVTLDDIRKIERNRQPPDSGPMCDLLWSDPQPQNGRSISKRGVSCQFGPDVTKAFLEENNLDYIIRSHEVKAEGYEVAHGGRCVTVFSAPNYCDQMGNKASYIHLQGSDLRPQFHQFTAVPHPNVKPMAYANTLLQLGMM
T3 sequence (P54829 282-563, species assumed): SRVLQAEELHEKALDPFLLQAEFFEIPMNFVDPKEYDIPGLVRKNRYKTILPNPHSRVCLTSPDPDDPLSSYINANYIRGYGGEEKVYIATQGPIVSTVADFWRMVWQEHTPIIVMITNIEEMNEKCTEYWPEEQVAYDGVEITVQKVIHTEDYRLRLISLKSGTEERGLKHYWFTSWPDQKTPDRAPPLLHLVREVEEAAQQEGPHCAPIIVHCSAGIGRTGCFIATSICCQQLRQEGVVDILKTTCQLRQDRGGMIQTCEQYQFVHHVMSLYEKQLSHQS
T4 sequence (Q9Y6W6 320-467 limits assumed, species assumed): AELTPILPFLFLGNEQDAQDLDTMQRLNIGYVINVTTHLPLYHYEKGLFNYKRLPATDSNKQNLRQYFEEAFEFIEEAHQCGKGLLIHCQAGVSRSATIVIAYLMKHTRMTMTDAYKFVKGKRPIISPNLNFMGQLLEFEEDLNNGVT
T9 sequence (P35236 22-360): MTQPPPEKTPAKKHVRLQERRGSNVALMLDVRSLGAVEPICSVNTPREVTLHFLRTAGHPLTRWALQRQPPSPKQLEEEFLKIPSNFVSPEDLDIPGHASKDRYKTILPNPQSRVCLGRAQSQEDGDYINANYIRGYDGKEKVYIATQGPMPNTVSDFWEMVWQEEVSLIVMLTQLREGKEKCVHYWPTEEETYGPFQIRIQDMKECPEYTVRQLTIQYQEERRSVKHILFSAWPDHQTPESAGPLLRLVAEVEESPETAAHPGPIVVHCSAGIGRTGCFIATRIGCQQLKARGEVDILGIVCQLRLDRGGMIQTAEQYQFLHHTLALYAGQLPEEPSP
T8 sequence (Q12923 2124-2485): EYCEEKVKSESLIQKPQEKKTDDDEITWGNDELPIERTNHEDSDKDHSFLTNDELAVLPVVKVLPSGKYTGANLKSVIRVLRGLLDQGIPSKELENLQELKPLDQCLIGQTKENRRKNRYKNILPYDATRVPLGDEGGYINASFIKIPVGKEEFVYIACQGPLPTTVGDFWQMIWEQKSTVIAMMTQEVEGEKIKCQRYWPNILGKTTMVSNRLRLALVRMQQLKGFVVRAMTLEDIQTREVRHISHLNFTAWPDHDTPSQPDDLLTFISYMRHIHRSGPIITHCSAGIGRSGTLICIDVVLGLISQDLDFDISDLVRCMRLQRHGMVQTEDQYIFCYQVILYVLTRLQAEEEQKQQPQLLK

## N#Cc1ccsc1NS(=O)(=O)c1ccc(NC(=O)CCl)cc1 [M029, 2-Chloro-N-(4-(N-(3-cyanothiophen-2-yl)sulfamoyl)phenyl)acetamide]
TCPTP
  IC50: 150 ± 31.1 µM
CD45
  IC50: 139 ± 38.5 µM
STEP
  IC50: > 200 µM
MKP5
  IC50: 165 ± 20.1 µM
LMPTP
  IC50: > 200 µM
CDC14A
  IC50: > 200 µM
PEST
  IC50: > 200 µM
FAP1
  IC50: > 200 µM
HePTP
  IC50: > 200 µM
Ssu72
  IC50: > 200 µM
PP5
  IC50: > 200 µM
